# Reference: US20210283092A1, “METHODS AND USES OF […] DERIVATIVES” (priority 2018, published 2021)
# “Also recorded” adds a separate entry of the source.
# What was measured:
# [1] = test system: human neutrophils stimulated with MSU; experiment: IL-1 release by TNF-α primed human neutrophils (ELISA); type: cell-based; details: 1 mg/ml MSU, 3 h
# Description: (§1) Extracellular CXCL8/IL-8 or IL-1β were quantified by ELISA (Invitrogen). All samples were measured in duplicate.
# The production and secretion of mature IL-1 requires two stimuli. Human neutrophils were, therefore, primed with TNF-α prior to stimulation with MSU. […] (FIG. 8H-J).
# [2] = test system: MSU-induced leukocyte recruitment to the dorsal air-pouch; experiment: Air-pouch model, compound given 5 min prior to MSU; type: in vivo, CD-1 mice
# Description: (§2) An air-pouch was generated on the dorsum of mice over a period of seven days by injecting air subcutaneously. […] Seven hours after the administration of MSU, the exudate in the air pouches was harvested by two flushes with 2 ml and one with 1 ml of PBS+0.5 M EDTA and the number of recruited leukocytes determined by flow cytometry. Leukocytes were stained with an anti-CD45 and anti-Ly6 G antibody.
# [3] = test system: human neutrophils stimulated with MSU; experiment: CXCL8/IL-8 release by human neutrophils (ELISA); type: cell-based; details: for lowest concentration giving significant decrease in MSU-induced release of IL-8: 1 mg/ml MSU, 3 h
# Description: as §1
# In addition, since IL-1 induces the expression of adhesion molecules on endothelial cells as well as the synthesis of pro-inflammatory cytokines, which together promote a massive recruitment of neutrophils, the ability of CCl (91) and CH-35 (43) to dampen the production of IL-1 was also assessed.
# [4] = test system: MSU-induced leukocyte recruitment to the dorsal air-pouch; experiment: Air-pouch model, compound given 1.5 hours after MSU; type: in vivo, mice; details: for lowest dose significantly dampening MSU-induced leukocyte recruitment: subcutaneous 1.5 hours after MSU
# Description: as §2
# [5] = test system: human neutrophils stimulated with MSU; experiment: Superoxide production by human neutrophils (cytochrome C reduction); type: cell-based; details: for lowest concentration inhibiting MSU-induced superoxide production: 1 mg/ml MSU
# Description: The results are expressed as a ratio of the superoxide produced by the MSU control.
# Superoxide production was measured using the reduction of cytochrome C assay. The difference between the optical density readings at 550 nm and 540 nm read within the first 10 minutes was multiplied by the extinction coefficient of cytochrome C to obtain the number of nmol O2 produced by 1×10^6 cells. The results are expressed as nmol O2/1×10^6 cells/ml.
# An additional neutrophil effector function that is calcium-dependent, known to be activated by MSU and that can cause damage to the inflamed joint, is the production of ROS.
# [6] = test system: human neutrophils stimulated with MSU; experiment: MSU-induced calcium mobilization in human neutrophils (Fura-2); type: cell-based; details: for lowest concentration significantly inhibiting the MSU-induced increase in intracellular calcium: 1 mg/ml MSU, 30 min pre-incubation; for effect on MSU-induced calcium levels: 10 μM 28a, 39, 47a, 89, 1 μM 14, 3 μM 43, TPO at indicated concentrations; for type of dose response, cytoplasmic calcium: 0.01 to 10 μM
# Description: Neutrophils were isolated from venous blood of healthy adult volunteers. Briefly, venous blood was obtained in tubes containing isocitrate, red blood cells were sedimented in 2% dextran and neutrophils were aseptically purified by centrifugation on Ficoll-Paque cushions. Contaminating erythrocytes were removed by hypotonic lysis and neutrophils were resuspended in Mg^2+-free HBSS containing 1.6 mM of CaCl2.
# (FIG. 7D), D1=(28a) (FIGS. 7E and 7J), D2=(39) (FIG. 7F), D3=(47a) (FIGS. 7G and 7J), D4=(89) (FIG. 7H) prior to the addition of MSU (1 mg/ml).
# The intracellular calcium concentration was determined with a spectrofluorometer and is expressed as the area under the curve (from the MSU injection up to 100 sec).
# Changes in cytoplasmic calcium were then measured after the addition of MSU or HBSS (the negative control) using two excitation wavelengths at 340 and 380 nm and an emission wavelength of 510 nm. The free internal calcium concentration was estimated from the ratio of the fluorescence values obtained at 340 and 380 nm. The results are calculated as the area under the curve of the intracellular calcium concentration as a function of time (0-100 sec relative to stimulus addition).
# Since one of the earliest molecular events in neutrophils that is initiated by MSU is the mobilization of intracellular calcium stores, the effect of (91) (CCl), (43) and (47a) was assessed on this early signalling event. Briefly, and as described in further detail above, human neutrophils were incubated with the fluorescent calcium indicator Fura-2 prior to incubation with a range of concentrations of (91) (CCl), (43) or (47a) and stimulated with MSU. Fura-2 monitors the increase in cytoplasmic calcium caused by its release from intracellular stores.
# [7] = test system: MSU-induced leukocyte recruitment to the dorsal air-pouch; details: literature value (Chia et al. 2008); cited from earlier work
# [8] = test system: atherosclerosis in LDLR KO mice; experiment: Mouse model of atherosclerosis, high-fat diet; type: in vivo
# Description: LDLR KO mice were randomly divided into 4 groups and either fed a control (CD) diet (group 1 & 2) or high-fat (group 3 & 4) diet. The high-fat (HF) diet contained 0.2% total cholesterol, 21% total fat by weight (42% kcal from fat), >60% of total fatty acids) and was high in sucrose (34% by weight). The animals and their feed were weighed every week.
# Mice in group 2 & 4 were administered a dose of 0.5 μmol/kg CCl subcutaneously (s.c), 3 times a week for 8 weeks.
# Blood was drawn from mice after the 8-week diet. Serum was prepared from the drawn blood and frozen until analysis. Serum triglycerides and cholesterol were measured in serum of mice by our Multidisciplinary and Microbiology Laboratory Service.
# The aortic lesion ‘en face’ assay and Sudan IV staining was performed on aortas harvested from all mice. The percent lipid stained area in the aortic branch and the descending aorta was compared between mice using the ‘region of interest’ tool in ImageJ.
# Blood was drawn from mice after the 8-week diet. Serum was prepared from the drawn blood and frozen until analysis. The levels of cytokines in the serum were measured by Luminex assay. The cytokines assayed were Eotaxin (CCL11), CCL21, G-CSF (CSF-3), RANKL, VEGF-A, IL-1 beta, IL-6 & MCP-1 (CCL2). These cytokines were chosen based on a cytokine signature that was reported to reflect the development of atherosclerosis in ApoE KO mice. The LDLR KO model was used since the inflammatory aspect of atherosclerosis is better represented in this model.
# [9] = Plasma concentration and half-life in mice after subcutaneous injection
# Description: The concentration of the compound in the plasma (FIGS. 10A and B) was determined by mass spectrometry. The concentration of (91) (CCl) or CH-35 (43) is expressed as the means of the amount of (91) (CCl) or CH-35 (43) measured in the plasma (ng/ml) of 5 mice harvested at the same time point.
# [10] = test system: human neutrophils stimulated with fMLP; experiment: fMLP-induced increase in cytoplasmic calcium in human neutrophils; type: cell-based; details: 10 μM compound, 10^−7 M fMLP
# Description: The intracellular calcium concentration was determined with a spectrofluorometer and is expressed as the area under the curve.
# To assess the specificity of CCl (91) towards neutrophil activation by MSU, it was determined whether CCl (91) was able to inhibit neutrophil responses towards an unrelated stimulus. A bacterial stimulus was chosen because neutrophil activation in response to this stimulus affects the survival of the host. Briefly, human neutrophils were incubated with the 10 μM CCl (91) prior to the activation with the bacterial peptide fMLF. […] In the presence of CCl (91), however, the cytoplasmic calcium response was unaffected.
# [11] = Acute toxicity study in rats; type: in vivo
# [12] = Concentration in circulating leukocytes of mice after subcutaneous injection
# Description: Blood was harvested by cardiac puncture and centrifuged to obtain circulating leukocytes. The concentration of the compound in the leukocytes (FIGS. 11A and B) was determined by mass spectrometry. The concentration of (91) (CCl) or CH-35 (43) is expressed as the means of the amount of (91) (CCl) or CH-35 (43) measured in circulating leukocytes (ng/ml) of 5 mice harvested at the same time point.
# [13] = 0.5 μmol/kg s.c. 3 times a week, 8 weeks, HF diet
# [14] = en face assay, Sudan IV, HF+CCl
compound,measurement,setting,value
"N-[(7S)-1,2,3,10-tetramethoxy-9-oxo-5,6,7,9-tetrahydrobenzo[α]heptalen-7-yl] acetamide [Colchicine, reference compound]",concentration at which MSU-induced IL-1 production is diminished (threshold),[1],10 µM
same,effect on MSU-induced leukocyte recruitment at 0.5 μmol/kg,"[2]; 0.5 μmol/kg, 5 min prior to MSU",lost its potency to significantly inhibit
same,dose inhibiting MSU-induced leukocyte recruitment,"[2]; subcutaneous 5 min prior to MSU, 7 hours",5 µmol/kg
same,lowest concentration giving significant decrease in MSU-induced release of IL-8,[3],1 µM
same,effect on MSU-induced leukocyte recruitment at 0.5 μmol/kg,"[4]; 0.5 μmol/kg, after MSU",no longer able to significantly inhibit; also recorded: loses its anti-inflammatory activity
same,lowest concentration inhibiting MSU-induced superoxide production,[5],1 µM
same,lowest concentration significantly inhibiting the MSU-induced increase in intracellular calcium,[6],10 µM
same,dose that effectively dampens MSU-induced leukocyte recruitment in mice,[7],5 µmol/kg
"COC(=O)N(C)[C@H]1CCc2cc(OC)c(OC)c(OC)c2-c2ccc(SC)c(=O)cc21 [TPO, reference compound]",effect on MSU-induced calcium levels,[6],inhibition at higher concentrations
CCOc1cc2c(c(OC)c1OC)-c1ccc(SC)c(=O)cc1[C@@H](NC(=O)OC)CC2 [(91)],concentration at which MSU-induced IL-1 production is diminished (threshold),[1],0.1 µM
same,behaviour and tolerability,"[8]; 0.5 μmol/kg s.c. 3 times a week, 8 weeks",did not show any signs of suffering
same,serum cholesterol versus HF diet alone,[8]; [13],lower
same,serum triglycerides versus HF diet alone,[8]; [13],lower
same,effect on serum cytokine levels,"[8]; Luminex, HF diet 8 weeks",no significant effect
same,percent of total area of the aortic arch covered by lesions versus HF diet,[8]; [14],smaller percent
same,percent of total area of the descending aorta covered by lesions versus HF diet,[8]; [14],smaller percent
same,percent of total area of the descending aorta covered by lesions,[8]; majority of mice in the HF+CCl group,less than 1%
same,persistence in the plasma,"[9]; 5 μmol/kg subcutaneous, mice",at least 2 hours
same,fraction of peak plasma concentration by 60 minutes,"[9]; mouse, in vivo, sc",less than ¼
same,peak plasma concentration,"[9]; mouse, in vivo, sc",80 ng/mL
same,time of peak plasma concentration,"[9]; mouse, in vivo, sc",15 min
same,half-life,"[9]; mouse, in vivo, sc, 5 umol/kg",13.3 min
same,fold lower dose than colchicine inhibiting leukocyte recruitment,"[2]; mouse, in vivo",~10 fold
same,dose inhibiting MSU-induced leukocyte recruitment,"[2]; mouse, in vivo, sc",0.5 µmol/kg
same,cytoplasmic calcium response to fMLF in presence of compound,[10],unaffected
same,lowest concentration giving significant decrease in MSU-induced release of IL-8,[3],0.1 µM
same,fold lower concentration than colchicine for inhibiting release of IL-8,[3]; versus colchicine,about 10 fold
same,fold lower dose than effective dose of colchicine inhibiting leukocyte recruitment,"[4]; mouse, in vivo",about 10 fold
same,lowest dose significantly dampening MSU-induced leukocyte recruitment,[4],0.5 µmol/kg
same,lowest concentration inhibiting MSU-induced superoxide production,[5],0.1 µM
same,fold lower concentration than colchicine for inhibiting superoxide production,[5]; versus colchicine,about 10 fold
same,toxicity compared with colchicine,[11]; acute toxicity study in rats,less toxic than colchicine
same,maximal tolerable dose relative to colchicine,[11]; rats,3 fold
same,effect on MSU-induced increase in cytoplasmic calcium at 10 μM,[6]; 10 μM,does not have a significant effect
same,lowest concentration significantly inhibiting the MSU-induced increase in intracellular calcium,[6],0.1 µM
same,"type of dose response, cytoplasmic calcium",[6],non-monotonic dose response
same,fold lower concentration than colchicine for inhibiting calcium mobilization,[6]; versus colchicine,about 100 fold
same,time of peak concentration in circulating leukocytes,"[12]; mouse, in vivo, sc",15 min
COC(=O)N[C@H]1CCc2cc(O)c(OC)c(OC)c2-c2ccc(SC)c(=O)cc21 [(89)],effect on MSU-induced calcium levels,[6],exception
"COc1cc2c(c(OC)c1OC)-c1ccc(SC)c(=O)cc1[C@@H](NC(C)=O)CC2 [(39), N-[(7S)-1,2,3-trimethoxy-10-methylsulfanylo-9-oxo-5,6,7,9-tetrahydrobenzo [α]heptalen-7-yl]acetamide]",effect on MSU-induced calcium levels,[6],neutrophil-inhibitory effects
"CCCOc1cc2c(c(OC)c1OC)-c1ccc(SC)c(=O)cc1[C@@H](NC(C)=O)CC2 [(43), N-[(7S)-3-propoxy-1,2-dimethoxy-10-methylsulfanyl-9-oxo-5,6,7,9-tetrahydrobenzo [α]heptalen-7-yl]acetamide]",concentration at which MSU-induced IL-1 production is diminished (threshold),[1],1 µM
same,time after injection at which plasma level dropped to undetectable,"[9]; 5 μmol/kg subcutaneous, mice",about 50 minutes
same,time of peak plasma concentration,"[9]; 5 μmol/kg subcutaneous, mice",15 min
same,lowest concentration giving significant decrease in MSU-induced release of IL-8,[3],0.1 µM
same,lowest dose significantly dampening MSU-induced leukocyte recruitment,[4],2.5 µmol/kg
same,lowest concentration inhibiting MSU-induced superoxide production,[5],0.1 µM
same,effect on MSU-induced calcium levels,[6],neutrophil-inhibitory effects
same,lowest concentration significantly inhibiting the MSU-induced increase in intracellular calcium,[6],0.1 µM
same,"type of dose response, cytoplasmic calcium",[6],classical monotonic dose response
same,time of peak concentration in circulating leukocytes,"[12]; 5 μmol/kg subcutaneous, mice",15 min
"COc1cc2c(c(OCc3ccccc3Cl)c1OC)-c1ccc(OC)c(=O)cc1[C@@H](NC(C)=O)CC2 [(14), N-[(7S)-2,3,10-trimethoxy-9-oxo-1-((phenyl(2-chloro))methoxy)-5,6,7,9-tetrahydrobenzo[α]heptalen-7-yl] acetamide]",effect on MSU-induced calcium levels,[6],neutrophil-inhibitory effects
